Reference: the supplement of paper PMC10307832

What was measured:
Assay in all cases: relative viability (nuclei count vs DMSO), 5 days (fraction); higher = more cells survive
[1] = compound: CCN(CCO)CCCC(C)Nc1ccnc2cc(Cl)ccc12 [Hydroxychloroquine] + Nc1ncn([C@H]2C[C@H](O)[C@@H](CO)O2)c(=O)n1 [Decitabine] (partner 2 µM)
In short: (§1)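 The day after seeding in 1536-well plates, lung cancer cell lines were treated by pin tool with a single drug, or with a fixed anchor-drug dose together with five library-drug doses (not always all listed) in √10 steps. After 5 days, a combined fix-and-stain solution (final 0.05% Triton X-100, 1% formaldehyde, 1 ug/ml Hoechst) was added. Nuclei counted on 4× images gave relative viability as treated counts over vehicle counts, reported as the median of duplicate plates.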

[2] = compound: CCN(CCO)CCCC(C)Nc1ccnc2cc(Cl)ccc12 [Hydroxychloroquine] + CC(C)C[C@H](NC(=O)[C@H](Cc1ccccc1)NC(=O)c1cnccn1)B(O)O [Bortezomib] (partner 0.002 µM)
In short: as §1

[3] = compound: CCN(CCO)CCCC(C)Nc1ccnc2cc(Cl)ccc12 [Hydroxychloroquine] + Cc1cc(Nc2cc(N3CCN(C)CC3)nc(Sc3ccc(NC(=O)C4CC4)cc3)n2)n[nH]1 [Tozasertib] (partner 0.1 µM)
In short: as §1

[4] = compound: CCN(CCO)CCCC(C)Nc1ccnc2cc(Cl)ccc12 [Hydroxychloroquine] + NC(=O)Nc1cc(-c2cccc(F)c2)sc1C(=O)N[C@H]1CCCNC1 [AZD7762] (partner 0.2 µM)
In short: as §1

| Cell Line | relative viability ([1]; first compound 0.5 µM) | relative viability ([1]; first compound 1.581 µM) | relative viability ([1]; first compound 5 µM) | relative viability ([1]; first compound 15.81 µM) | relative viability ([1]; first compound 50 µM) | relative viability ([2]; first compound 0.5 µM) | relative viability ([2]; first compound 1.581 µM) | relative viability ([2]; first compound 5 µM) | relative viability ([2]; first compound 15.81 µM) | relative viability ([2]; first compound 50 µM) | relative viability ([3]; first compound 0.5 µM) | relative viability ([3]; first compound 1.581 µM) | relative viability ([3]; first compound 5 µM) | relative viability ([3]; first compound 15.81 µM) | relative viability ([3]; first compound 50 µM) | relative viability ([4]; first compound 0.5 µM) | relative viability ([4]; first compound 1.581 µM) | relative viability ([4]; first compound 5 µM) | relative viability ([4]; first compound 15.81 µM) | relative viability ([4]; first compound 50 µM) |
| --- | --- | --- | --- | --- | --- | --- | --- | --- | --- | --- | --- | --- | --- | --- | --- | --- | --- | --- | --- | --- |
| LCLC-97TM1 | 0.217 | 0.247 | 0.276 | 0.274 | 0.189 | 0.453 | 0.764 | 0.483 | 0.523 | 0.529 | 0.282 | 0.254 | 0.229 | 0.509 | 0.26 | 0.373 | 0.499 | 0.245 | 0.119 | 0.363 |
| HARA | 0.492 | 0.539 | 0.524 | 0.534 | 0.519 | 1.1 | 1.19 | 1.02 | 1.13 | 1.06 | 0.221 | 0.0946 | 0.0888 | 0.11 | 0.099 | 0.263 | 0.373 | 0.405 | 0.219 | 0.376 |
| HCC-78 | 0.655 | 0.638 | 0.651 | 0.676 | 0.73 | 0.425 | 0.482 | 0.525 | 0.519 | 0.568 | 0.438 | 0.459 | 0.478 | 0.305 | 0.466 | 0.595 | 0.754 | 0.605 | 0.661 | 0.641 |
| NCI-H1666 | 0.707 | 0.691 | 0.759 | 0.792 | 0.635 | 0.907 | 0.658 | 0.652 | 0.714 | 0.772 | 0.612 | 0.557 | 0.658 | 0.636 | 0.552 | 0.891 | 0.791 | 0.806 | 0.774 | 0.72 |
| NCI-H2347 | 0.658 | 0.536 | 0.618 | 0.573 | 0.636 | 0.979 | 0.911 | 0.931 |  | 0.878 | 0.553 | 0.455 | 0.664 | 0.402 | 0.469 | 0.657 | 0.692 | 0.806 | 0.701 | 0.882 |
| PC-14 | 0.248 | 0.149 | 0.214 | 0.231 | 0.201 | 0.783 | 0.959 | 0.925 | 0.788 | 0.852 | 0.58 | 0.537 | 0.54 | 0.544 | 0.55 | 0.3 | 0.459 | 0.31 | 0.302 | 0.406 |
| NCI-H2023 | 0.231 | 0.209 | 0.214 | 0.227 | 0.211 | 1.06 | 0.942 | 1.01 | 0.964 | 1.03 | 0.35 | 0.339 | 0.344 | 0.36 | 0.36 |  |  |  |  |  |
| 201T | 0.858 | 0.834 | 0.852 | 0.864 | 0.844 | 1.07 | 1.09 | 1.1 | 1.07 | 1.11 | 0.941 | 0.954 | 0.951 | 0.966 | 1.08 | 0.571 | 0.809 | 0.759 | 0.59 | 0.658 |
| NCI-H1915 | 0.252 | 0.247 | 0.273 | 0.252 | 0.263 | 1.07 | 0.953 | 1.02 | 0.923 | 1.03 | 0.425 | 0.411 | 0.428 | 0.464 | 0.439 | 0.65 | 0.742 | 0.731 | 0.711 | 0.707 |
| NCI-H2009 | 0.353 | 0.397 | 0.403 | 0.353 | 0.377 | 1.02 | 1.04 | 0.956 | 0.963 | 1.07 | 0.819 | 0.745 | 0.784 | 0.739 | 0.726 |  |  |  |  |  |
| BEN | 0.764 | 0.649 | 0.64 | 0.75 | 0.636 | 0.693 | 0.802 | 0.977 | 0.824 | 0.949 | 0.606 | 0.465 | 0.551 | 0.501 | 0.622 | 0.795 | 0.652 | 0.767 | 0.776 | 0.759 |
| PC-3 [JPC-3] | 0.814 | 0.767 | 0.805 | 0.792 | 0.761 | 0.787 | 0.841 | 0.812 | 0.694 | 0.94 | 0.859 | 0.959 | 0.973 | 0.948 | 0.901 | 0.905 | 0.882 | 0.652 | 0.727 | 0.774 |
| SK-MES-1 | 0.389 | 0.304 | 0.419 | 0.361 | 0.366 |  |  |  |  |  | 1.06 | 0.943 | 1.02 | 1.02 | 0.94 |  |  |  |  |  |
| NCI-H838 | 0.472 | 0.458 | 0.437 | 0.429 | 0.452 | 0.9 | 0.819 | 0.663 | 0.79 | 0.805 | 0.234 | 0.241 | 0.23 | 0.281 | 0.281 | 0.963 | 0.943 | 0.916 | 0.968 | 1.03 |
| NCI-H1355 | 0.319 | 0.344 | 0.369 | 0.371 | 0.338 | 1.24 | 1.19 | 1.09 | 1.12 | 1.25 | 0.616 | 0.493 | 0.513 | 0.557 | 0.508 | 0.747 | 0.795 | 0.679 | 0.72 | 0.81 |
| NCI-H1975 | 0.384 | 0.372 | 0.378 | 0.408 | 0.415 | 0.343 | 0.333 | 0.342 | 0.379 | 0.354 | 0.84 | 0.695 | 0.856 | 0.858 | 0.847 | 0.679 | 0.659 | 0.752 | 0.698 | 0.754 |
| LK-2 | 0.308 | 0.297 | 0.36 | 0.268 | 0.284 |  |  |  |  |  | 0.176 | 0.167 |  | 0.176 | 0.154 | 0.424 | 0.334 | 0.447 | 0.411 | 0.312 |
